Laboratory results from patent US8471005B2 (Cephalon, Inc., priority 2008, dated 2013).
pIC50: −log10 of the molar value. Read-outs that look alike come from different tables or passages of the source.

Legend:
ALK = target: T1, ALK (Homo sapiens, UniProt Q9UM73); assay: ALK Kinase Assay (ELISA/TRF, PLC-γ substrate); format: biochemical; settings: read-out: ALK Potency
T1 construct: host or cells: baculovirus expression system
Method in brief: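 Read-out is time-resolved fluorescence from a Eu-N1-labeled PT66 antibody that binds phosphorylated PLC-γ, the substrate coated at 10 μg/mL in TBS. ALK at 30 ng/ml starts the reaction, which runs 15 minutes at 37° C.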

JAK2 = target: T2, JAK2 (Homo sapiens, UniProt O60674); assay: Recombinant Human JAK2 Kinase Assay (TRF); format: biochemical; settings: read-out: JAK2 Potency
T2 construct: host or cells: baculovirus expression system
T2 sequence (O60674 whole entry): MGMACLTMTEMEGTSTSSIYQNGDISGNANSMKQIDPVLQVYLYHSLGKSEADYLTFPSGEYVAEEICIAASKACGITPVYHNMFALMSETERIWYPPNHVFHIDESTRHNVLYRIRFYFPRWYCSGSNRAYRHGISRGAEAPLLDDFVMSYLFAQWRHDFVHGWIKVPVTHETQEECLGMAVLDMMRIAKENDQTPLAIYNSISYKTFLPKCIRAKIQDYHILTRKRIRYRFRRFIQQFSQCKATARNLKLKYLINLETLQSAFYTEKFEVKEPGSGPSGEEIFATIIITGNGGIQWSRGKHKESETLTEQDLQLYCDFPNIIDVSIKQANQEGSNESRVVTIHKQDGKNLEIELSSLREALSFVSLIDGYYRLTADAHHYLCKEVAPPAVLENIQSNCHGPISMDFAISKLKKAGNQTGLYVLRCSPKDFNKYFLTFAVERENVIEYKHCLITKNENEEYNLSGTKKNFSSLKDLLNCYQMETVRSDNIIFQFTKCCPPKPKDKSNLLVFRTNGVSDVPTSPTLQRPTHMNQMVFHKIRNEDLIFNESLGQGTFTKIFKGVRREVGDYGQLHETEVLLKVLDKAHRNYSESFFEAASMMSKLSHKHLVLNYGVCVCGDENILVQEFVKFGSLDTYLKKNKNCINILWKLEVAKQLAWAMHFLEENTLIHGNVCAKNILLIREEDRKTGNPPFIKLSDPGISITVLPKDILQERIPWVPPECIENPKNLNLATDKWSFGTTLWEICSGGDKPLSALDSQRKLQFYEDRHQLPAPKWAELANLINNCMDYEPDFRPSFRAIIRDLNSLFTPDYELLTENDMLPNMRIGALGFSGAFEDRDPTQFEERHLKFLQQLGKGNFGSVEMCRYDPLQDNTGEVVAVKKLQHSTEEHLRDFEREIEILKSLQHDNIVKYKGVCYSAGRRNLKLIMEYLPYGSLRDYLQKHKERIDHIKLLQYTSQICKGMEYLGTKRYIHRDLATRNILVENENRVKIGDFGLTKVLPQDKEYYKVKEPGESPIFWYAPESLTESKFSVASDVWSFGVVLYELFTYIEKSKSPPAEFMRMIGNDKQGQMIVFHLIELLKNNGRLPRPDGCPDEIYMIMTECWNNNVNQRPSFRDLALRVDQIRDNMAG
Method in brief: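 Kinase activity of baculovirus-expressed JAK2 is followed on a surface-immobilised biotinylated peptide, with the reaction run for 20 min at room temperature in buffer containing 0.2 μM ATP and manganese. Phosphorylation is read with Eu-N1 PY100 antibody.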

[1] = ALK kinase inhibition, 1 μM ATP
[2] = JAK2 kinase inhibition, 0.2 μM ATP

T1 sequence (Q9UM73 19-1620): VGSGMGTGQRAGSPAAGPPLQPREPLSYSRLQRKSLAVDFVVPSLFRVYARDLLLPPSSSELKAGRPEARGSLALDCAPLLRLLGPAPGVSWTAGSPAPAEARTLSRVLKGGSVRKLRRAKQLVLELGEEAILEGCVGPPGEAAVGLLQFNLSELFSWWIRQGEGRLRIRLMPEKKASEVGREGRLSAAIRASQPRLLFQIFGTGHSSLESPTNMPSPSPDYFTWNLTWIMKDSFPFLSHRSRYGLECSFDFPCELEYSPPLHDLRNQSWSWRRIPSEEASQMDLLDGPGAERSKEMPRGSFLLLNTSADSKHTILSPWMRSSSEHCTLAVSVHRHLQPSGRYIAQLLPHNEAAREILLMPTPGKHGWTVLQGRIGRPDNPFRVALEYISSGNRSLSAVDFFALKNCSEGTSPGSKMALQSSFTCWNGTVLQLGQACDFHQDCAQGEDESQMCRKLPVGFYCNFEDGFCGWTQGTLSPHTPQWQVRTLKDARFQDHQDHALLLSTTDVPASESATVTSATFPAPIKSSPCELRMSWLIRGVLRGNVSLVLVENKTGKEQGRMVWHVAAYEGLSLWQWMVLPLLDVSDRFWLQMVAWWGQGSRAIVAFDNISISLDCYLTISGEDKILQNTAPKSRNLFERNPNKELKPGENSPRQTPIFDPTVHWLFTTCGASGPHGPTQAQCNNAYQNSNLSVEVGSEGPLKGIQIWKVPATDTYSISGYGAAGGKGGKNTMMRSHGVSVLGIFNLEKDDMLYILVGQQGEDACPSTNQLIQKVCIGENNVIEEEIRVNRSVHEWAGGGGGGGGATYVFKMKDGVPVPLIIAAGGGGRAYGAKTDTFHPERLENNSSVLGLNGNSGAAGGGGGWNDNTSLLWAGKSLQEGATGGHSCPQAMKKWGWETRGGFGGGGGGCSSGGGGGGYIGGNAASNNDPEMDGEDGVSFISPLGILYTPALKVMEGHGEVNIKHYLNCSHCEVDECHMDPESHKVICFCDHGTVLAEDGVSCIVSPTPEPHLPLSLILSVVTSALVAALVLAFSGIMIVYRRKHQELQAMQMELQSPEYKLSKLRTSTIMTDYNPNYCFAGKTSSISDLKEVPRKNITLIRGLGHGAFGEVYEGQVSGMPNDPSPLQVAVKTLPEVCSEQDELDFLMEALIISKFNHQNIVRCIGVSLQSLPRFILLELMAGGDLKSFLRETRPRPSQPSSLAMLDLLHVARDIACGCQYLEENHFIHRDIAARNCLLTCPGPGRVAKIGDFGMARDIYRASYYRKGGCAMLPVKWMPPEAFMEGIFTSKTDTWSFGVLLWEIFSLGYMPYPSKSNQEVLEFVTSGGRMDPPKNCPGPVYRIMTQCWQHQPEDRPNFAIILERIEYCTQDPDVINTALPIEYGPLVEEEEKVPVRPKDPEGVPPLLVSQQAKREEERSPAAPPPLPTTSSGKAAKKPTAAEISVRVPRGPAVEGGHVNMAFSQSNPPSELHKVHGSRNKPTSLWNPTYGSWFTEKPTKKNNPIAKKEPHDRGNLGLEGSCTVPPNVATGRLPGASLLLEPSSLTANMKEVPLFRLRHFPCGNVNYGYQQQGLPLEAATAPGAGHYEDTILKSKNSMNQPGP

| Molecule | pIC50 (ALK; [1]) | pIC50 (JAK2; [2]) | pIC50 (ALK; ALK Kinase Inhibition) | pIC50 (JAK2; JAK2 Kinase Inhibition) |
| --- | --- | --- | --- | --- |
| COc1cc(N(C)C(=O)CN2CCN(C)CC2)ccc1Nc1ncc2ccc(-c3ccccc3OC)n2n1 [Example 474, N-{3-Methoxy-4-[7-(2-methoxy-phenyl)-pyrrolo[2,1-f][1,2,4]triazin-2-ylamino]-phenyl}-N-methyl-2-(4-methyl-piperazin-1-yl)-acetamide] | > 7.00 | 5.00 to 6.00 |  |  |
| COc1cc(C2CCN(CC(N)=O)CC2)ccc1Nc1ncc2ccc(-c3cc(F)ccc3N(C)S(C)(=O)=O)n2n1 [Example 1282, 2-[4-(4-{7-[5-Fluoro-2-(methanesulfonyl-methyl-amino)-phenyl]-pyrrolo[2,1-f][1,2,4]triazin-2-ylamino}-3-methoxy-phenyl)-piperidin-1-yl]-acetamide] | > 7.00 | 5.00 to 6.00 |  |  |
| COc1ccc(-c2ccc3cnc(Nc4ccc(N5CCN(C)CC5)cc4)nn23)cc1 [Example 421, [7-(4-Methoxy-phenyl)-pyrrolo[2,1-f][1,2,4]triazin-2-yl]-[4-(4-methyl-piperazin-1-yl)-phenyl]-amine] |  |  | 6.00 to 7.00 | > 7.00 |
| CN1CCN(c2ccc(Nc3ncc4ccc(-c5cccnc5Cl)n4n3)cc2)CC1 [Example 1036, [7-(2-Chloro-pyridin-3-yl)-pyrrolo[2,1-f][1,2,4]triazin-2-yl]-[4-(4-methyl-piperazin-1-yl)-phenyl]-amine] | 6.00 to 7.00 | > 7.00 |  |  |
| c1cncc(-c2ccc3cnc(Nc4ccc(N5CCOCC5)cc4)nn23)c1 [Example 11, (4-Morpholin-4-yl-phenyl)-(7-pyridin-3-yl-pyrrolo[2,1-f][1,2,4]triazin-2-yl)-amine] |  |  | 5.00 to 6.00 | > 7.00 |
| O=S(=O)(Nc1cccc(-c2ccc3cnc(Nc4ccc(N5CCOCC5)cc4)nn23)c1)C1CC1 [Example 414, Cyclopropanesulfonic acid {3-[2-(4-morpholin-4-yl-phenylamino)-pyrrolo[2,1-f][1,2,4]triazin-7-yl]-phenyl}-amide] |  |  | 6.00 to 7.00 | > 7.00 |
| 7-(2-methoxy-phenyl)-pyrrolo(2,1-f)(1,2,4)triazin-2-yl-6-amino-1′-methyl-spiro(2H-1-benzopyran-2,4′-piperidine) [Example 377] |  |  | > 7.00 | > 7.00 |
| COC[C@H](O)CN1CCN(Cc2ccc(Nc3ncc4ccc(-c5ccccc5OC)n4n3)c(OC)c2)CC1 [Example 1227, (R)-1-Methoxy-3-(4-{3-methoxy-4-[7-(2-methoxy-phenyl)-pyrrolo[2,1-f][1,2,4]triazin-2-ylamino]-benzyl}-piperazin-1-yl)-propan-2-ol] | > 7.00 | 6.00 to 7.00 |  |  |
| CN1CCN(c2ccc(Nc3ncc4cc(-c5cccc(CCC#N)c5)cn4n3)cc2)CC1 [Example 1161, 3-(3-{2-[4-(4-Methyl-piperazin-1-yl)-phenylamino]-pyrrolo[2,1-f][1,2,4]triazin-6-yl}-phenyl)-propionitrile] | 6.00 to 7.00 | > 7.00 |  |  |
| c1cncc(-c2ccc3cnc(Nc4cnn(CCN5CCOCC5)c4)nn23)c1 [Example 1191, [1-(2-Morpholin-4-yl-ethyl)-1H-pyrazol-4-yl]-(7-pyridin-3-yl-pyrrolo[2,1-f][1,2,4]triazin-2-yl)-amine] | < 5.00 | > 7.00 |  |  |
| COc1cc(N2CCCN(C[C@H](O)CO)CC2)ccc1Nc1ncc2ccc(-c3ccccc3N(C)S(C)(=O)=O)n2n1 [Example 773, N-[2-(2-{4-[4-((S)-2,3-Dihydroxy-propyl)-[1,4]diazepan-1-yl]-2-methoxy-phenylamino}-pyrrolo[2,1-f][1,2,4]triazin-7-yl)-phenyl]-N-methyl-methanesulfonamide] | > 7.00 | 6.00 to 7.00 |  |  |
| COc1cc(CN2CCN(C(=O)CNC(=O)OC(C)(C)C)CC2)ccc1Nc1ncc2ccc(-c3ccccc3N(C)S(C)(=O)=O)n2n1 [Example 1239, {2-[4-(4-{7-[2-(Methanesulfonyl-methyl-amino)-phenyl]-pyrrolo[2,1-f][1,2,4]triazin-2-ylamino}-3-methoxy-benzyl)-piperazin-1-yl]-2-oxo-ethyl}-carbamic acid tert-butyl ester] | > 7.00 | 6.00 to 7.00 |  |  |
| CC(=O)Nc1cccc(Nc2ncc3ccc(-c4cccc(S(=O)(=O)NC(C)(C)C)c4)n3n2)c1 [Example 1368, N-{3-[7-(3-tert-Butylsulfamoyl-phenyl)-pyrrolo[2,1-f][1,2,4]triazin-2-ylamino]-phenyl}-acetamide] |  |  | 6.00 to 7.00 | > 7.00 |
| COc1cc2c(cc1Nc1ncc3ccc(-c4cccc(S(=O)(=O)NC5CC5)c4)n3n1)CCN(CC(N)=O)CC2 [Example 524, 2-{7-[7-(3-Cyclopropylsulfamoyl-phenyl)-pyrrolo[2,1-f][1,2,4]triazin-2-ylamino]-8-methoxy-1,2,4,5-tetrahydro-benzo[d]azepin-3-yl}-acetamide] | > 7.00 | 6.00 to 7.00 |  |  |
| C[C@H](O)CN1CCN(c2cccc(Nc3ncc4ccc(-c5ccc(S(C)(=O)=O)cc5)n4n3)c2)CC1 [Example 216, (S)-1-(4-{3-[7-(4-Methanesulfonyl-phenyl)-pyrrolo[2,1-f][1,2,4]triazin-2-ylamino]-phenyl}-piperazin-1-yl)-propan-2-ol] |  |  | 6.00 to 7.00 | > 7.00 |
| COc1ccc(Cl)cc1-c1ccc2cnc(Nc3ccc(C(=O)N4CCN(C)CC4)cc3)nn12 [Example 319, {4-[7-(5-Chloro-2-methoxy-phenyl)-pyrrolo[2,1-f][1,2,4]triazin-2-ylamino]-phenyl}-(4-methyl-piperazin-1-yl)-methanone] |  |  | 6.00 to 7.00 | > 7.00 |
| O=S(=O)(NC1CC1)c1cccc(-c2ccc3cnc(Nc4ccc(N5CCOCC5)cc4)nn23)c1 [Example 356, N-Cyclopropyl-3-[2-(4-morpholin-4-yl-phenylamino)-pyrrolo[2,1-f][1,2,4]triazin-7-yl]-benzenesulfonamide] |  |  | 6.00 to 7.00 | > 7.00 |
| c1c[nH]c(-c2ccc3cnc(Nc4ccc(N5CCOCC5)cc4)nn23)c1 [Example 1291, (4-Morpholin-4-yl-phenyl)-[7-(1H-pyrrol-2-yl)-pyrrolo[2,1-f][1,2,4]triazin-2-yl]-amine] | 5.00 to 6.00 | > 7.00 |  |  |
| COc1cc(N2CCCN(C3CCN(CCO)CC3)CC2)ccc1Nc1ncc2ccc(-c3ccccc3OC)n2n1 [Example 800, 2-[4-(4-{3-Methoxy-4-[7-(2-methoxy-phenyl)-pyrrolo[2,1-f][1,2,4]triazin-2-ylamino]-phenyl}-[1,4]diazepan-1-yl)-piperidin-1-yl]-ethanol] | > 7.00 | 6.00 to 7.00 |  |  |
| CN(c1ccccc1-c1ccc2cnc(Nc3ccc(C4(C#N)CCN(CC(N)=O)CC4)cc3)nn12)S(C)(=O)=O [Example 1549, 2-[4-Cyano-4-(4-{7-[2-(methanesulfonyl-methyl-amino)-phenyl]-pyrrolo[2,1-f][1,2,4]triazin-2-ylamino}-phenyl)-piperidin-1-yl]-acetamide] |  |  | > 7.00 | > 7.00 |
| COc1ccccc1-c1ccc2cnc(NC(=O)Nc3ccc(N4CCN(C)CC4)cc3)nn12 [Example 449, 1-[7-(2-Methoxy-phenyl)-pyrrolo[2,1-f][1,2,4]triazin-2-yl]-3-[4-(4-methyl-piperazin-1-yl)-phenyl]-urea] |  |  | 6.00 to 7.00 | > 7.00 |
| COc1ccc(-c2ccc3cnc(Nc4ccc(N5CCC[C@@H](C(=O)N6CCN(C)CC6)C5)cc4OC)nn23)cn1 [Example 464, ((R)-1-{3-Methoxy-4-[7-(6-methoxy-pyridin-3-yl)-pyrrolo[2,1-f][1,2,4]triazin-2-ylamino]-phenyl}-piperidin-3-yl)-(4-methyl-piperazin-1-yl)-methanone] |  |  | 6.00 to 7.00 | > 7.00 |
| NC(=O)CN1CCC(c2ccc(Nc3ncc4ccc(-c5cccc6c5OC(F)(F)O6)n4n3)cc2)CC1 [Example 1540, 2-(4-{4-[7-(2,2-Difluoro-benzo[1,3]dioxol-4-yl)-pyrrolo[2,1-f][1,2,4]triazin-2-ylamino]-phenyl}-piperidin-1-yl)-acetamide] |  |  | 6.00 to 7.00 | > 7.00 |
| CN1CCN(c2ccc(Nc3ncc4ccc(-c5ccc(N)nc5)n4n3)cc2)CC1 [Example 1118, [7-(6-Amino-pyridin-3-yl)-pyrrolo[2,1-f][1,2,4]triazin-2-yl]-[4-(4-methyl-piperazin-1-yl)-phenyl]-amine] | 6.00 to 7.00 | > 7.00 |  |  |
| c1cc(N2CCOCC2)ccc1Nc1ncc2ccc(-c3ccc4c(c3)OCCO4)n2n1 [Example 5, [7-(2,3-Dihydro-benzo[1,4]dioxin-6-yl)-pyrrolo[2,1-f][1,2,4]triazin-2-yl]-(4-morpholin-4-yl-phenyl)-amine] |  |  | 5.00 to 6.00 | > 7.00 |
| Cn1cnc2ccc(Nc3ncc4ccc(-c5cccc(S(=O)(=O)NC(C)(C)C)c5)n4n3)cc21 [Example 1300, N-tert-Butyl-3-[2-(3-methyl-3H-benzimidazol-5-ylamino)-pyrrolo[2,1-f][1,2,4]triazin-7-yl]-benzenesulfonamide] | 6.00 to 7.00 | > 7.00 |  |  |
| COc1cc(N2CCC(N3CCOCC3)CC2)ccc1Nc1ncc2ccc(-c3ccccc3N(C)S(C)(=O)=O)n2n1 [Example 1453, N-(2-{2-[2-Methoxy-4-(4-morpholin-4-yl-piperidin-1-yl)-phenylamino]-pyrrolo[2,1-f][1,2,4]triazin-7-yl}-phenyl)-N-methyl-methanesulfonamide] |  |  | > 7.00 | 6.00 to 7.00 |
| C[C@H](O)CN1CCC(c2ccc(Nc3ncc4ccc(-c5ccc(S(C)(=O)=O)cc5)n4n3)cc2)CC1 [Example 1432, (S)-1-(4-{4-[7-(4-Methanesulfonyl-phenyl)-pyrrolo[2,1-f][1,2,4]triazin-2-ylamino]-phenyl}-piperidin-1-yl)-propan-2-ol] |  |  | > 7.00 | > 7.00 |
